Data as given in publication PMC12040169 (PLOS Biology, 2025).

Assay: in vitro
Conditions: human, hela cells, % viability

Going from `CN(C)c1ccc(CCNC(=O)c2c3c(nn2C)CCCC3)cc1` [CBK281824] to `CC(NC(=O)c1c2c(nn1C)CCCC2)c1ccccn1` (centres unmarked) [CBK281888], the viability at 28.5 h, 10 µM falls from 96.4% to 95.2%.

First: Cc1cc(C(=O)NC(C)c2ccccn2)c2ccccc2n1 (centres unmarked) [CBK281826]
Second: CC(NC(=O)c1cn(C)c(=O)c2ccccc12)c1ccccn1 (centres unmarked) [CBK281886]
The viability at 28.5 h, 10 µM of the first is higher: 96.9% for the first, 92.1% for the second.

First: CN(CCN1CCCCC1)C(=O)c1cc2ccc(N(C)C)cc2[nH]1 [CBK281830]
Second: Cc1nc2cc(C(=O)N(C)CCN3CCCCC3)ccc2n1C [CBK281854]
The viability at 28.5 h, 10 µM of the first is higher: 107% for the first, 78.3% for the second.

Going from `Cc1ccc(C2(C(=O)N(C)CCN3CCCCC3)CCOCC2)cc1` [CBK281833] to `CN(CCN1CCCCC1)C(=O)c1cc2c([nH]1)CCCC2` [CBK281836], the viability at 28.5 h, 10 µM falls from 107% to 86.5%.

Going from `CCn1c(C)nc2cc(NC(=O)Cc3c(C)noc3C)ccc21` [CBK281834] to `CCn1c(C)nc2cc(NC(=O)c3oc(C)nc3C)ccc21` [CBK281881], the viability at 28.5 h, 10 µM rises from 100% to 106%.

Going from `Cc1nc2cc(C(=O)N3CCc4[nH]c5ccccc5c4C3)ccc2n1C` [CBK281842] to `CN(C)Cc1ccc(C(=O)N2CCc3[nH]c4ccccc4c3C2)cc1` [CBK281847], the viability at 28.5 h, 10 µM rises from 60.6% to 82.9%.

First: O=C(Cn1cnc2ccccc21)N1CCC(c2ccccc2)C1 (centres unmarked) [CBK281845]
Second: O=C(Cn1cnc2ccccc21)N1CCc2[nH]c3ccccc3c2C1 [CBK281860]
The viability at 28.5 h, 10 µM of the first is higher: 84.5% for the first, 74.7% for the second.

First: Cc1noc(C)c1CC(=O)N1CCc2[nH]c3ccccc3c2C1 [CBK281848]
Second: Cc1nc(C)c(C(=O)N2CCc3[nH]c4ccccc4c3C2)o1 [CBK281873]
The viability at 28.5 h, 10 µM of the first is lower: 97.8% for the first, 110% for the second.

Going from `O=C(c1cn2ccccc2n1)N1CCC(c2ccccc2)C1` (centres unmarked) [CBK281850] to `Cn1cc(C(=O)N2CCC(c3ccccc3)C2)c2ccccc2c1=O` (centres unmarked) [CBK281921], the viability at 28.5 h, 10 µM falls from 104% to 103%.

Compared with `O=C(c1cc(-c2ccccn2)n[nH]1)N1CCC(c2ccccc2)C1` (centres unmarked) [CBK281852], `O=C(c1cnn(-c2ccccc2)c1)N1CCc2[nH]c3ccccc3c2C1` [CBK281853] is lower in viability at 28.5 h, 10 µM: 91.9% for the first, 74.1% for the second.

First: CC1(C)C(=O)NCCN1C(=O)Cn1cnc2ccccc21 [CBK281856]
Second: Cc1nccn1CCC(=O)N1CCc2[nH]c3ccccc3c2C1 [CBK281882]
The viability at 28.5 h, 10 µM of the first is lower: 89.3% for the first, 111% for the second.

Compared with `CCn1c(C)nc2cc(NC(=O)CC3CCCCO3)ccc21` (centres unmarked) [CBK281859], `Cc1nc2cc(C(=O)NCC(C)(C)N3CCCCC3)ccc2n1C` [CBK281862] is lower in viability at 28.5 h, 10 µM: 98.2% for the first, 86.4% for the second.

Going from `O=C(CCn1cccn1)Nc1ccc(OC2CCCC2)cc1` [CBK281861] to `CN(CCN1CCCCC1)C(=O)c1ccccc1Cn1cccn1` [CBK281904], the viability at 28.5 h, 10 µM rises from 87.1% to 105%.

Going from `Cc1nc(C(F)(F)F)ccc1C(=O)NCC(C)(C)N1CCCCC1` [CBK281864] to `Cn1nc2c(c1C(=O)NCC(C)(C)N1CCCCC1)CCCC2` [CBK281878], the viability at 28.5 h, 10 µM falls from 98% to 94.4%.

Going from `CCN(C(=O)c1n[nH]c2c1CCC2)C1CCN(C)CC1` [CBK281870] to `CCCN(C(=O)C1CC1)c1nc2c(s1)CCc1c-2cnn1C` [CBK281930], the viability at 28.5 h, 10 µM falls from 102% to 88.8%.

Going from `O=C(c1cnn2cccnc12)N1CCc2[nH]c3ccccc3c2C1` [CBK281874] to `Cn1cc(C(=O)N2CCc3nc(-c4ccccc4F)sc3C2)cn1` [CBK281914], the viability at 28.5 h, 10 µM falls from 93% to 89%.

Compared with `Oc1cc(CCc2ccc(F)cc2)nc2ccnn12` [CBK281876], `CN(C)c1ccc(CCNC(=O)c2cn3ccccc3n2)cc1` [CBK281916] is lower in viability at 28.5 h, 10 µM: 88.9% for the first, 87.4% for the second.

First: CC(NC(=O)Cn1ccnc1-c1ccccc1)c1ccccn1 (centres unmarked) [CBK281885]
Second: CC(NC(=O)CCc1cn(C)c2ccccc12)c1ccccn1 (centres unmarked) [CBK281889]
The viability at 28.5 h, 10 µM of the first is higher: 103% for the first, 93.1% for the second.

Going from `Cc1ccc2[nH]nc(C(=O)NC(C)c3ccccn3)c2c1` (centres unmarked) [CBK281887] to `Cc1c(-c2cncn2CC(=O)NC(C)(C)C)[nH]c2ccccc12` [CBK281911], the viability at 28.5 h, 10 µM rises from 69.9% to 87.5%.

Going from `Cn1nccc1CN1CCCC(Cc2nc3ccccc3[nH]2)C1` (centres unmarked) [CBK281892] to `CN(CCN1CCCCC1)C(=O)CCc1cn(C)c2ccccc12` [CBK281906], the viability at 28.5 h, 10 µM falls from 98.2% to 94.3%.

Compared with `Cc1ccc(C(Cn2cncc2-c2cn(C)nc2C)N(C)C)cc1` (centres unmarked) [CBK281896], `CCN1c2ccc(-c3cncn3CCCn3ccnc3C)cc2CC1C` (centres unmarked) [CBK281924] is lower in viability at 28.5 h, 10 µM: 98.7% for the first, 90.7% for the second.

Compared with `O=C(Cn1cccc2cc(-c3cccs3)nc1-2)NC1CC1` [CBK281897], `CC1CC(C)CN(CCCNC(=O)c2cc(-c3cccs3)no2)C1` (centres unmarked) [CBK281949] is lower in viability at 28.5 h, 10 µM: 108% for the first, 93% for the second.

Going from `Cc1oc2c(c1C(=O)NCCn1ccnc1C)CCCC2` [CBK281898] to `Cc1cc2c(o1)CCc1sc(N(C)C(=O)C3CCCO3)nc1-2` (centres unmarked) [CBK281932], the viability at 28.5 h, 10 µM falls from 97.1% to 80.3%.

First: Cc1cc(C)n(CCCN(C)Cc2c(C)nc3ccccn23)n1 [CBK281901]
Second: CC(C)(CO)CCCn1cncc1-c1cnn(-c2ccccc2)c1 [CBK281922]
The viability at 28.5 h, 10 µM of the first is lower: 90% for the first, 96.9% for the second.

Going from `O=C1CCCN1c1ccc(CN2CCN(C3CCCC3)C(=O)C2)cc1` [CBK281908] to `O=C1CN(Cc2cnn(-c3ccc(F)cc3)c2)CCN1C1CCCC1` [CBK281926], the viability at 28.5 h, 10 µM falls from 96.2% to 86.5%.

Compared with `Cn1c(=O)n(C)c2cc(CN3CCN(C4CCCC4)C(=O)C3)ccc21` [CBK281909], `Cc1cc(C2CCCCCN2Cc2cc(Cl)ccc2O)on1` (centres unmarked) [CBK281948] is lower in viability at 28.5 h, 10 µM: 97.1% for the first, 89.2% for the second.

Going from `Cn1cc(C(=O)N2CCc3nc(-c4cccc(F)c4)sc3C2)cn1` [CBK281910] to `CN(C(=O)c1ccco1)c1nc2c(s1)CCc1c-2cnn1C` [CBK281928], the viability at 28.5 h, 10 µM falls from 94.5% to 81.2%.

Compared with `C=CCN1CCc2cc(-c3cncn3CC(=O)NC(C)(C)C)ccc21` [CBK281923], `CN(C(=O)Cc1ccsc1)c1nc2c(s1)CCc1c-2cnn1C` [CBK281929] is lower in viability at 28.5 h, 10 µM: 86.7% for the first, 82.4% for the second.

Compared with `CN(C(=O)C1CC1)c1nc2c(s1)CCc1c-2cnn1C` [CBK281927], `CN(C(=O)C1CCC1)c1nc2c(s1)CCc1c-2cnn1C` [CBK281931] is higher in viability at 28.5 h, 10 µM: 75.7% for the first, 75.9% for the second.

Going from `O=c1[nH]c2ccccc2cc1CNc1ccc(F)cc1F` [CBK281933] to `COc1ccc2cc(CNc3ccc(F)c(F)c3)c(=O)[nH]c2c1` [CBK281934], the viability at 28.5 h, 10 µM falls from 84.1% to 83%.

First: Cc1ccc2[nH]c(=O)c(CNc3ccc4[nH]ncc4c3)cc2c1 [CBK281936]
Second: Cc1ccc2nc3c(cc2c1)CNCC(C)O3 (centres unmarked) [CBK281941]
The viability at 28.5 h, 10 µM of the first is lower: 73% for the first, 85.9% for the second.

Compared with `O=C(CN1CCC(O)(c2ccccc2F)CC1)N1CCCCC1` [CBK281938], `O=C(CN1C2CCC1CC(O)(c1ccccc1F)C2)NCC1CC1` (centres unmarked) [CBK281942] is lower in viability at 28.5 h, 10 µM: 103% for the first, 93.4% for the second.

Going from `Cc1cc2cc3c(nc2cc1C)OCCNC3` [CBK281939] to `O=C1NC2(CCCCC2)C(=O)N1c1ccc(F)cc1F` [CBK281945], the viability at 28.5 h, 10 µM rises from 97.1% to 111%.

First: O=C(C1CC1)N1CCCC(c2nc(-c3cccs3)no2)C1 (centres unmarked) [CBK281944]
Second: OC1(c2ccc(F)cc2)CC2CCC(C1)N2 (centres unmarked) [CBK281947]
The viability at 28.5 h, 10 µM of the first is higher: 97.1% for the first, 89.7% for the second.
